Earlier results, collected in patent US10487314B2, “Inhibition of serotonin expression in gut enteroendocrine cells results in conversion to insulin-positive cells” (priority 2014, dated 2019).

Key:
ALDH1A3 mRNA = conditions: human prostate
5-HT2B = 5-HT2B (Homo sapiens, UniProt P41595)
Sequence of 5-HT2B (P41595 whole entry, species assumed): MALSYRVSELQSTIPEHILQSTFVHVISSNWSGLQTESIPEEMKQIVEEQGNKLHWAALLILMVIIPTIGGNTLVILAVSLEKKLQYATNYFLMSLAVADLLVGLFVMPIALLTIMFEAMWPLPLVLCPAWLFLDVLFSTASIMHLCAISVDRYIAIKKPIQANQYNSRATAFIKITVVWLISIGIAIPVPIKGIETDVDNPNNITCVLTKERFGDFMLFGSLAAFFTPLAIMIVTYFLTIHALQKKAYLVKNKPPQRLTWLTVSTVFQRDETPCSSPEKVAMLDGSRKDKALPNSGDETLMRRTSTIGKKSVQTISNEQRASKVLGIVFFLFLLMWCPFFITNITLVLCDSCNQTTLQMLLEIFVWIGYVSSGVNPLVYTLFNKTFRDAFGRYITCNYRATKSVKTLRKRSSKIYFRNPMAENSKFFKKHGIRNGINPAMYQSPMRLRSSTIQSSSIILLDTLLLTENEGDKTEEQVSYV

In the case of `C[C@]12CCC(=O)C[C@@H]1CC[C@@H]1[C@@H]2CC[C@]2(C)[C@@H](O)CC[C@@H]12` [Androgen dihydrotestosterone (DHT), dihydrotestosterone], the “increase in ALDH1A3 mRNA levels” value (ALDH1A3 mRNA) is listed as 4 fold.
For `Cc1cc([N+](=O)[O-])c(N2CCN(Cc3ccccc3)CC2)cc1N` [EGIS-7625], the “selectivity over 5-HT2A” value (5-HT2B) is given as “high selectivity”.
In the case of `CC(C)c1cc(-c2ccc(F)c3ccccc23)nc(N)n1` [RS-127,445], the “affinity for 5-HT2B” value (5-HT2B) is listed as “high affinity”, the subtype selectivity (5-HT2B; 5-HT2B versus other subtypes) is listed as 1000 × and the oral bioavailability is listed as “orally bioavailable”.
